Measured values reported in patent US10617680B2 (CELGENE QUANTICEL RESEARCH, INC., priority 2017, dated 2020).

Target: CBP (Homo sapiens (Human), UniProt Q92793)
Assay: In vitro CBP inhibition (AlphaScreen, biotinylated H4-tetraacetyl peptide)
Assay type: binding
Settings: not given
In short: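 His-tagged CBP expressed in E. coli (50 nM final) incubated with biotinylated H4K5/8/12/16(Ac) peptide (20 nM final) in 50 mM HEPES pH 7.3, 10 mM NaCl, 0.25 mM TCEP, 0.1% BSA, 0.005% Brij-35, 0.4% DMSO, 20 min at room temp.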

Sequence of CBP (Q92793 1081-1197): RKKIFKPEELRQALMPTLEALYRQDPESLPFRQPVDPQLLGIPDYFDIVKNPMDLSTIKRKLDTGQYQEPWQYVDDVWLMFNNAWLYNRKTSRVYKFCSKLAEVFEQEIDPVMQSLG

Row | SMILES | IC50
1 | Cn1cc(-c2cnn(CC3CC3)c2)c(-c2ccc(C#N)cc2)cc1=O [Example 156, 4-[5-(1-cyclopropyl-methyl-1H-pyrazol-4-yl)-1-methyl-2-oxo-1,2-dihydro-pyridin-4-yl]-benzonitrile] | 500 to 5000 nM

Same assay, conditions: AlphaScreen, Table 29; read-out: CBP IC50

Row | SMILES | IC50
2 | Cn1cc(-c2cnn(Cc3ccccc3)c2)c(-c2ccc(F)cc2)cc1=O [Example 149, 5-(1-benzyl-1H-pyrazol-4-yl)-4-(4-fluorophenyl)-1-methyl-pyridin-2(1H)-one] | < 500 nM
3 | Cn1cc(-c2cnn(Cc3ccccc3)c2)c(-c2ccc(C#N)cc2)cc1=O [Example 150, 4-(5-(1-benzyl-1H-pyrazol-4-yl)-1-methyl-2-oxo-1,2-dihydro-pyridin-4-yl)benzonitrile] | < 500 nM
4 | Cn1cc(-c2cnn(Cc3ccccc3)c2)c(-c2ccc(C(N)=O)cc2)cc1=O [Example 151, 4-(5-(1-benzyl-1H-pyrazol-4-yl)-1-methyl-2-oxo-1,2-dihydro-pyridin-4-yl)benzamide] | < 500 nM
5 | Cn1cc(-c2cnn(Cc3ccccc3)c2)c(-c2cn[nH]c2)cc1=O [Example 152, 5-(1-benzyl-1H-pyrazol-4-yl)-1-methyl-4-(1H-pyrazol-4-yl) pyridin-2(1H)-one] | < 500 nM
6 | Cn1cc(-c2cnn(CC3CC3)c2)c(-c2ccc(Cl)cc2)cc1=O [Example 153, 4-(4-chloro-phenyl)-5-(1-cyclopropylmethyl-1H-pyrazol-4-yl)-1-methyl-1H-pyridin-2-one] | < 500 nM
7 | Cn1cc(-c2cnn(Cc3ccccc3)c2)c(-c2ccc(C(=O)O)cc2)cc1=O [Example 155, 4-(5-(1-benzyl-1H-pyrazol-4-yl)-1-methyl-2-oxo-1,2-dihydropyridin-4-yl)benzoic acid] | < 500 nM
8 | Cn1cc(-c2cnn(Cc3ccccc3)c2)c(-c2cnn(CC(N)=O)c2)cc1=O [Example 158, 2-(4-(5-(1-benzyl-1H-pyrazol-4-yl)-1-methyl-2-oxo-1,2-dihydro-pyridin-4-yl)-1H-pyrazol-1-yl)acetamide] | < 500 nM
9 | Cn1cc(-c2cnn(Cc3ccccc3)c2)c(-c2cnn(C(F)F)c2)cc1=O [Example 160, 5-(1-benzyl-1H-pyrazol-4-yl)-4-(1-(difluoromethyl)-1H-pyrazol-4-yl)-1-methylpyridin-2(1H)-one] | < 500 nM
10 | Cn1cc(-c2cnn(Cc3ccccc3)c2)c(-c2cnn(CC(C)(C)O)c2)cc1=O [Example 161, 5-(1-benzyl-1H-pyrazol-4-yl)-4-(1-(2-hydroxy-2-methylpropyl)-1H-pyrazol-4-yl)-1-methyl-pyridin-2(1H)-one] | < 500 nM
11 | Cn1cc(-c2cnn3c2CCC3)c(-c2ccccc2)cc1=O [Example 162, 5-(5,6-dihydro-4H-pyrrolo[1,2-b]pyrazol-3-yl)-1-methyl-4-phenylpyridin-2(1H)-one] | < 500 nM
12 | Cn1cc(-c2cnn(Cc3ccccc3)c2)c(-c2cnn(CC#N)c2)cc1=O [Example 163, 2-(4-(5-(1-benzyl-1H-pyrazol-4-yl)-1-methyl-2-oxo-1,2-dihydropyridin-4-yl)-1H-pyrazol-1-yl)acetonitrile] | < 500 nM
13 | Cc1c(-c2cn(C)c(=O)cc2-c2ccccc2)cnn1C [Example 164, 5-(1,5-dimethyl-1H-pyrazol-4-yl)-1-methyl-4-phenylpyridin-2(1H)-one] | 500 to 5000 nM
14 | CCCOc1cc(=O)n(C)cc1-c1cnn(Cc2ccccc2)c1 [Example 165, 5-(1-Benzyl-1H-pyrazol-4-yl)-1-methyl-4-propoxy-1H-pyridin-2-one] | < 500 nM
15 | Cn1cc(-c2cnn(Cc3ccccc3)c2)c(OCCC(=O)O)cc1=O [Example 166, 3-[5-(1-Benzyl-1H-pyrazol-4-yl)-1-methyl-2-oxo-1,2-dihydro-pyridin-4-yloxy]-propionic acid] | < 500 nM
16 | Cn1cc(-c2cnn(Cc3ccccc3)c2)c(OCC#N)cc1=O [Example 167, [5-(1-Benzyl-1H-pyrazol-4-yl)-1-methyl-2-oxo-1,2-dihydro-pyridin-4-yloxy]-acetonitrile] | < 500 nM
17 | CCSc1cc(=O)n(C)cc1-c1cnn(Cc2ccccc2)c1 [Example 168, 5-(1-Benzyl-1H-pyrazol-4-yl)-4-ethylsulfanyl-1-methyl-1H-pyridin-2-one] | < 500 nM
18 | Cn1cc(-c2cnn(Cc3ccccc3)c2)c(SCC(=O)O)cc1=O [Example 169, [5-(1-Benzyl-1H-pyrazol-4-yl)-1-methyl-2-oxo-1,2-dihydro-pyridin-4-ylsulfanyl]-acetic acid] | < 500 nM
19 | CNOc1cc(=O)n(C)cc1-c1cnn(Cc2ccccc2)c1 [Example 170, 5-(1-benzyl-1H-pyrazol-4-yl)-1-methyl-4-((methylamino)oxy)pyridin-2(1H)-one] | < 500 nM
20 | CCOc1cc(=O)n(C)cc1-c1cnn(CC2CC2(F)F)c1 (centres unmarked) [Example 171, 5-[1-(2,2-Difluoro-cyclopropylmethyl)-1H-pyrazol-4-yl]-4-ethoxy-1-methyl-1H-pyridin-2-one] | < 500 nM
21 | CNS(=O)(=O)C1CCN(c2cc(=O)n(C)cc2-c2cnn(Cc3ccccc3)c2)C1 (centres unmarked) [Example 172, 1-(5-(1-benzyl-1H-pyrazol-4-yl)-1-methyl-2-oxo-1,2-dihydropyridin-4-yl)-N-methylpyrrolidine-3-sulfonamide] | < 500 nM
22 | Cn1cc(-c2cnn(Cc3ccccc3)c2)c(N2CC[C@@H](NS(=O)(=O)C(F)(F)F)C2)cc1=O [Example 173, (R)-N-(1-(5-(1-benzyl-1H-pyrazol-4-yl)-1-methyl-2-oxo-1,2-dihydropyridin-4-yl)pyrrolidin-3-yl)-1,1,1-trifluoromethanesulfonamide] | 500 to 5000 nM
23 | Cn1cc(-c2cnn(Cc3ccccc3)c2)c(N2CC[C@@H](NS(C)(=O)=O)C2)cc1=O [Example 174, (R)-N-(1-(5-(1-benzyl-1H-pyrazol-4-yl)-1-methyl-2-oxo-1,2-dihydropyridin-4-yl)pyrrolidin-3-yl)methanesulfonamide] | 500 to 5000 nM
24 | COc1cc(=O)n(C)cc1-c1cnn(C(C)c2ccccc2)c1 (centres unmarked) [Example 175, 4-methoxy-1-methyl-5-(1-(1-phenylethyl)-1H-pyrazol-4-yl) pyridin-2(1H)-one] | < 500 nM
25 | CCOc1cc(=O)n(C)cc1-c1cnn(-c2cccc(C(C)C)c2C#N)c1 [Example 176, 2-[4-(4-Ethoxy-1-methyl-6-oxo-1,6-dihydro-pyridin-3-yl)-pyrazol-1-yl]-6-isopropyl-benzonitrile] | < 500 nM
26 | CCOc1cc(=O)n(C)cc1-c1cnn(-c2cccc(OC)c2C#N)c1 [Example 177, 2-[4-(4-Ethoxy-1-methyl-6-oxo-1,6-dihydro-pyridin-3-yl)-pyrazol-1-yl]-6-methoxy-benzonitrile] | < 500 nM
27 | CCOc1cc(=O)n(C)cc1-c1cnn(-c2cccc(Cl)c2C#N)c1 [Example 178, 2-Chloro-6-[4-(4-ethoxy-1-methyl-6-oxo-1,6-dihydro-pyridin-3-yl)-pyrazol-1-yl]-benzonitrile] | < 500 nM
28 | CCOc1cc(=O)n(C)cc1-c1cnn(-c2cccc(C)c2C#N)c1 [Example 179, 2-[4-(4-Ethoxy-1-methyl-6-oxo-1,6-dihydro-pyridin-3-yl)-pyrazol-1-yl]-6-methyl-benzonitrile] | < 500 nM
29 | CCOc1cc(=O)n(C)cc1-c1cnn(-c2ccccc2S(C)(=O)=O)c1 [Example 180, 4-Ethoxy-5-[1-(2-methanesulfonyl-phenyl)-1H-pyrazol-4-yl]-1-methyl-1H-pyridin-2-one] | < 500 nM
